Broadly, the MIC is the lowest concentration that inhibits growth of the organism.

Among the data in US11180504B2 (ORCHID PHARMA LTD., priority 2016, dated 2021) are MIC values, retold here.

Values after ≈ are worked out from the molar mass of the structure shown. Like-named read-outs stand apart in the source and are kept apart here.

For assay [1], the system named is methicillin-sensitive Staphylococcus aureus. Nature of the assay: MIC by broth micro-dilution (CLSI), methicillin-sensitive S. aureus. The format is cell-based. The conditions noted are these: MSSA S. aureus ATCC29213. A general note: In broth dilution the organism is exposed to a series of concentrations in liquid medium.
The subject of assay [2] is carbapenem sensitive Escherichia coli. Nature of the assay: MIC by broth micro-dilution (CLSI), carbapenem sensitive E. coli. The assay is classed as cell-based.
Assay [3] concerns carbapenemase producing K. pneumoniae. Nature of the assay: MIC by broth micro-dilution (CLSI), carbapenemase producing K. pneumoniae. The format is cell-based, Klebsiella pneumoniae.
Assay [4] relates to carbapenem sensitive Pseudomonas aeruginosa. Nature of the assay: MIC by broth micro-dilution (CLSI), carbapenem sensitive P. aeruginosa. The format is cell-based.
[5] abbreviates: Staphylococcus aureus, ATCC 29213 / MSSA, read-out: MIC.
[6] abbreviates: Escherichia coli, ATCC25922, ESBL −ve E. coli ATCC25922, read-out: MIC.
[7] abbreviates: Klebsiella pneumoniae, ATCCBAA1705, KPC-2 K. pneumoniae ATCC BAA-1705, read-out: MIC.
Where [8] appears, read: Pseudomonas aeruginosa, ATCC27853, Meropenem susceptible P. aeruginosa ATCC27853, read-out: MIC.

As for `C[C@@H](NS(=O)(=O)Cn1cnnn1)[C@H]1C(=O)N2C(C(=O)O)=C(S[C@@H]3CN[C@H](C(=O)N4CC[C@@H](N)C4)C3)[C@H](C)[C@H]12` [Example 380, (4R,5S,6S)-6-((R)-1-((1H-tetrazol-1-yl)methylsulfonamido)ethyl)-3-((3S,5S)-5-((R)-3-aminopyrrolidine-1-carbonyl)pyrrolidin-3-ylthio)-4-methyl-7-oxo-1-azabicyclo[3.2.0]hept-2-ene-2-carboxylic acid], the MIC in assay [1] (setting [5]) was determined as 32 µg/mL (≈ 56.2 µM); in assay [2] (setting [6]), 1 µg/mL (≈ 1.76 µM); in assay [3] (setting [7]), 8 µg/mL (≈ 14 µM); in assay [4] (setting [8]), 32 µg/mL (≈ 56.2 µM).

As to `C[C@@H](NS(=O)(=O)Cn1ncnn1)[C@H]1C(=O)N2C(C(=O)O)=C(S[C@@H]3CN[C@H](C(=O)N4CC[C@@H](N)C4)C3)[C@H](C)[C@H]12` [Example 382, (4R,5S,6S)-6-((R)-1-((2H-tetrazol-2-yl)methylsulfonamido)ethyl)-3-((3S,5S)-5-((R)-3-aminopyrroldine-1-carbonyl)pyrrolidin-3-ylthio)-4-methyl-7-oxo-1-azabicyclo[3.2.0]hept-2-ene-2-carboxylic acid], the MIC in assay [1] (setting [5]) amounted to 16 µg/mL (≈ 28.1 µM); in assay [2] (setting [6]), 1 µg/mL (≈ 1.76 µM); in assay [3] (setting [7]), 4 µg/mL (≈ 7.02 µM); in assay [4] (setting [8]), 128 µg/mL (≈ 225 µM).

Regarding `C[C@@H](NC(=O)Cn1nnnc1N(C)C)[C@H]1C(=O)N2C(C(=O)O)=C(S[C@@H]3CN[C@H](C(=O)N(C)C)C3)[C@H](C)[C@H]12` [Example 383, (4R,5S,6R)-6-((R)-1-(2-(5-(dimethylamino)-1H-tetrazol-1-yl)acetamido)ethyl)-3-((3S,5S)-5-(dimethylcarbamoyl)pyrrolidin-3-ylthio)-4-methyl-7-oxo-1-azabicyclo[3.2.0]hept-2-ene-2-carboxylic acid], the MIC in assay [1] (setting [5]) was 4 µg/mL (≈ 7.47 µM); in assay [2] (setting [6]) it was 0.25 µg/mL (≈ 0.467 µM); in assay [3] (setting [7]) it was 4 µg/mL (≈ 7.47 µM); in assay [4] (setting [8]) it was more than 128 µg/mL.

As for `C[C@@H](NC(=O)Cn1nnnc1N(C)C)[C@H]1C(=O)N2C(C(=O)O)=C(S[C@@H]3CN[C@H](C(=O)N4CC[C@@H](N)C4)C3)[C@H](C)[C@H]12` [Example 384, (4R,5S,6R)-3-((3S,5S)-5-((R)-3-aminopyrrolidine-1-carbonyl)pyrrolidin-3-ylthio)-6-((R)-1-(2-(5-(dimethylamino)-1H-tetrazol-1-yl)acetamido)ethyl)-4-methyl-7-oxo-1-azabicyclo[3.2.0]hept-2-ene-2-carboxylic acid], the MIC was 4 µg/mL (≈ 6.94 µM) in assay [1] (setting [5]), 0.5 µg/mL (≈ 0.867 µM) in assay [2] (setting [6]), 4 µg/mL (≈ 6.94 µM) in assay [3] (setting [7]) and 64 µg/mL (≈ 111 µM) in assay [4] (setting [8]).

For `COc1nnnn1CC(=O)N[C@H](C)[C@H]1C(=O)N2C(C(=O)O)=C(S[C@@H]3CN[C@H](C(=O)N(C)C)C3)[C@H](C)[C@H]12` [Example 385, (4R,5S,6R)-3-((3S,5S)-5-(dimethylcarbamoyl)pyrrolidin-3-ylthio)-6-((R)-1-(2-(5-methoxy-1H-tetrazol-1-yl)acetamido)ethyl)-4-methyl-7-oxo-1-azabicyclo[3.2.0]hept-2-ene-2-carboxylic acid], the MIC amounted to 4 µg/mL (≈ 7.65 µM) in assay [1] (setting [5]), 0.25 µg/mL (≈ 0.478 µM) in assay [2] (setting [6]), 2 µg/mL (≈ 3.83 µM) in assay [3] (setting [7]) and 64 µg/mL (≈ 122 µM) in assay [4] (setting [8]).

As to `COc1nnnn1CC(=O)N[C@H](C)[C@H]1C(=O)N2C(C(=O)O)=C(S[C@@H]3CN[C@H](C(=O)N4CC[C@@H](N)C4)C3)[C@H](C)[C@H]12` [Example 386, (4R,5S,6R)-3-((3S,5S)-5-((R)-3-aminopyrrolidine-1-carbooyl)pyrrolidin-3-ylthio)-6-((R)-1-(2-(5-methoxy-1H-tetrazol-1-yl)acetamido)ethyl)-4-methyl-7-oxo-1-azabicyclo[3.2.0]hept-2-ene-2-carboxylic acid], the MIC was determined as 2 µg/mL (≈ 3.55 µM) in assay [1] (setting [5]), 0.125 µg/mL (≈ 0.222 µM) in assay [2] (setting [6]), 8 µg/mL (≈ 14.2 µM) in assay [3] (setting [7]) and 8 µg/mL (≈ 14.2 µM) in assay [4] (setting [8]).

Regarding `C[C@@H](NC(=O)Cn1cnnn1)[C@H]1C(=O)N2C(C(=O)O)=C(SC3CN(C(=O)[C@@H]4C[C@H](N)CN4)C3)[C@H](C)[C@H]12` [Example 387], the MIC in assay [1] (setting [5]) was 8 µg/mL (≈ 15.4 µM); in assay [2] (setting [6]), 0.25 µg/mL (≈ 0.481 µM); in assay [3] (setting [7]) it was 8 µg/mL (≈ 15.4 µM); in assay [4] (setting [8]), 32 µg/mL (≈ 61.6 µM).

Take `C[C@@H](NC(=O)C(N)C(F)(F)F)[C@H]1C(=O)N2C(C(=O)O)=C(S[C@@H]3CN[C@H](C(=O)N(C)C)C3)[C@H](C)[C@H]12` (stereo partly shown) [Example 388]: the MIC in assay [1] (setting [5]) is 8 µg/mL (≈ 15.8 µM); in assay [2] (setting [6]), 2 µg/mL (≈ 3.94 µM); in assay [3] (setting [7]), 8 µg/mL (≈ 15.8 µM); in assay [4] (setting [8]), more than 128 µg/mL.

As to `C[C@@H](NC(=O)C(N)C(F)(F)F)[C@H]1C(=O)N2C(C(=O)O)=C(S[C@@H]3CN[C@H](C(=O)N(C)C)C3)[C@H](C)[C@H]12` (stereo partly drawn) [Example 389, (4R,5S,6R)-6-((1R)-(2-amino-3,3,3-trifluoropropanamido)ethyl)-3-((3S,5S)-5-(dimethylcarbamoyl)pyrrolidin-3-ylthio)-4-methyl-7-oxo-1-azabicyclo[3.2.0]hept-2-ene-2-carboxylic acid], the MIC is 8 µg/mL (≈ 15.8 µM) in assay [1], 1 µg/mL (≈ 1.97 µM) in assay [2] (ESBL −ve E. coli ATCC25922), 4 µg/mL (≈ 7.88 µM) in assay [3] (KPC-2 K. pneumoniae ATCC BAA-1705) and more than 128 µg/mL in assay [4] (Meropenem susceptible P. aeruginosa ATCC27853).

`C[C@@H](NC(=O)CN1CCn2nnnc2C1)[C@H]1C(=O)N2C(C(=O)O)=C(S[C@@H]3CN[C@H](C(=O)N4CC[C@@H](N)C4)C3)[C@H](C)[C@H]12` [Example 390, (4R,5S,6R)-3-((3S,5S)-5-((R)-3-aminopyrrolidine-1-carbonyl)pyrrolidin-3-ylthio)-6-((R)-1-(2-(5,6-dihydrotetrazolo[1,5-a]pyrazin-7(8H)-yl)acetamido)ethyl)-4-methyl-7-oxo-1-azabicyclo[3.2.0]hept-2-ene-2-carboxylic acid]: the MIC in assay [1] (setting [5]) worked out at 4 µg/mL (≈ 6.79 µM); in assay [2] (setting [6]), 1 µg/mL (≈ 1.7 µM); in assay [3] (setting [7]), 16 µg/mL (≈ 27.2 µM); in assay [4] (setting [8]), 128 µg/mL (≈ 217 µM).

For `C[C@@H](NC(=O)Cn1cnnn1)[C@H]1C(=O)N2C(C(=O)O)=C(S[C@@H]3CN[C@H](CN4CC[C@@H](N)C4)C3)[C@H](C)[C@H]12` [Example 391], the MIC in assay [1] (setting [5]) was 1 µg/mL (≈ 1.92 µM); in assay [2] (setting [6]), 0.5 µg/mL (≈ 0.962 µM); in assay [3] (setting [7]), 0.5 µg/mL (≈ 0.962 µM); in assay [4] (setting [8]), 4 µg/mL (≈ 7.7 µM).

For `C[C@@H](NC(=O)Cn1nnnc1N)[C@H]1C(=O)N2C(C(=O)O)=C(S[C@@H]3CN[C@H](C(=O)N(C)C)C3)[C@H](C)[C@H]12` [Example 392, (4R,5S,6R)-6-((R)-1-(2-(5-amino-1H-tetrazol-1-yl)acetamido)ethyl)-3-((3S,5S)-5-(dimethylcarbamoyl)pyrrolidin-3-ylthio)-4-methyl-7-oxo-1-azabicyclo[3.2.0]hept-2-ene-2-carboxylic acid], the MIC in assay [1] (setting [5]) came out at 4 µg/mL (≈ 7.88 µM); in assay [2] (setting [6]), 1 µg/mL (≈ 1.97 µM); in assay [3] (setting [7]) it was 4 µg/mL (≈ 7.88 µM); in assay [4] (setting [8]), 64 µg/mL (≈ 126 µM).

Consider `C[C@@H](NC(=O)Cn1cnnn1)[C@H]1C(=O)N2C(C(=O)O)=C(S[C@@H]3CN[C@H](C(=O)N4CC[C@@H](O)C4)C3)[C@H](C)[C@H]12` [Example 393, (4R,5S,6R)-6-((R)-1-(2-(1H-tetrazol-1-yl)acetamido)ethyl)-3-((3S,5S)-5-((R)-3-hydroxypyrrolidine-1-carbonyl)pyrrolidin-3-ylthio)-4-methyl-7-oxo-1-azabicyclo[3.2.0]hept-2-ene-2-carboxylic acid], for which the MIC is 4 µg/mL (≈ 7.48 µM) in assay [1] (setting [5]), 0.125 µg/mL (≈ 0.234 µM) in assay [2] (setting [6]), 1 µg/mL (≈ 1.87 µM) in assay [3] (setting [7]) and 8 µg/mL (≈ 15 µM) in assay [4] (setting [8]).

As to `C[C@@H](NC(=O)Cc1nnc(C(F)(F)F)o1)[C@H]1C(=O)N2C(C(=O)O)=C(S[C@@H]3CN[C@H](C(=O)N4CC[C@@H](N)C4)C3)[C@H](C)[C@H]12` [Example 394, (4R,5S,6R)-3-((3S,5S)-5-((R)-3-aminopyrrolidine-1-carbonyl)pyrrolidin-3-ylthio)-4-methyl-7-oxo-6-((R)-1-(2-(5-(trifluoromethyl)-1,3,4-oxadiazol-2-yl)acetamido)ethyl)-1-azabicyclo[3.2.0]hept-2-ene-2-carboxylic acid], the MIC amounted to 8 µg/mL (≈ 13.3 µM) in assay [1] (setting [5]), 2 µg/mL (≈ 3.32 µM) in assay [2] (setting [6]), 32 µg/mL (≈ 53.2 µM) in assay [3] (setting [7]) and 128 µg/mL (≈ 213 µM) in assay [4] (setting [8]).

Regarding `C[C@@H](NC(=O)Cn1cnnn1)[C@H]1C(=O)N2C(C(=O)O)=C(S[C@@H]3CN[C@H](C(=O)N4CCN(C(=O)CN)CC4)C3)[C@H](C)[C@H]12` [Example 395, (4R,5S,6R)-6-((R)-1-(2-(1H-tetrazol-1-yl)acetamido)ethyl)-3-((3S,5S)-5-(4-(2-aminoacetyl)piperazine-1-carbonyl)pyrrolidin-3-ylthio)-4-methyl-7-oxo-1-azabicyclo[3.2.0]hept-2-ene-2-carboxylic acid], the minimum inhibitory concentration (MIC) in assay [1] (setting [5]) was 2 µg/mL (≈ 3.39 µM); in assay [2] (setting [6]), 0.125 µg/mL (≈ 0.212 µM); in assay [3] (setting [7]), 1 µg/mL (≈ 1.69 µM); in assay [4] (setting [8]), 1 µg/mL (≈ 1.69 µM).

With `C[C@@H](NC(=O)Cn1cnnn1)[C@H]1C(=O)N2C(C(=O)O)=C(S[C@@H]3CN[C@H](C(=O)N4C[C@@H](O)[C@H](O)C4)C3)[C@H](C)[C@H]12` [Example 396, (4R,5S,6R)-6-((R)-1-(2-(1H-tetrazol-1-yl)acetamido)ethyl)-3-((3S,5S)-5-((3R,4R)-3,4-dihydroxypyrrolidine-1-carbonyl)pyrrolidin-3-ylthio)-methyl-7-oxo-1-azabicyclo[3.2.0]hept-2-ene-2-carboxylic acid], the MIC in assay [1] (setting [5]) amounted to 4 µg/mL (≈ 7.26 µM); in assay [2] (setting [6]), 0.125 µg/mL (≈ 0.227 µM); in assay [3] (setting [7]), 1 µg/mL (≈ 1.82 µM); in assay [4] (setting [8]), 4 µg/mL (≈ 7.26 µM).
